Assay results published in patent US3954975A, “Salts of ACTH-peptides and processes for their manufacture” (Ciba-Geigy Corporation, priority 1972, dated 1976).
Where a name gives a salt, the structure may show the parent alone. Square brackets hold non-standard residues; d marks the D form. Peptide text beside a SMILES is read from it.

Experiment: solubility of the fatty acid salt in water
Format: physicochemical
Details: for solubility in water: 24°C
Experimental: 200 mg of D-Ser^1 -Lys^17,18 -β^1-18 -corticotropin-Lys^18 -amide hexaacetate hydrate are dissolved in 24 ml of ethanol and 1.6 ml of water, and thereafter a solution of 88 mg of lauric acid in 10 ml of ethanol is added. The mixture is evaporated to dryness, the residue is dried overnight in vacuo over sodium hydroxide and is then dissolved in 25 ml of tert. butanol and 5 ml of water whilst warming, the solution is filtered and the filtrate is lyophilized. The residue is again dried in vacuo over sodium hydroxide. 265 mg of lauric acid salt are obtained as a light powder. The solubility of the product in water at 24°C is less than 0.1% (acetic acid salt > 10%).

| solubility in water (in words) | Compound | also measured |
| --- | --- | --- |
| – | CSCC[C@H](NC(=O)[C@H](CO)NC(=O)[C@H](Cc1ccc(O)cc1)NC(=O)[C@H](N)CO)C(=O)N[C@@H](CCC(=O)O)C(=O)N[C@@H](Cc1c[nH]cn1)C(=O)N[C@@H](Cc1ccccc1)C(=O)N[C@@H](CCCNC(=N)N)C(=O)N[C@@H](Cc1c[nH]c2ccccc12)C(=O)NCC(=O)N[C@@H](CCCCN)C(=O)N1CCC[C@H]1C(=O)N[C@H](C(=O)NCC(=O)N[C@@H](CCCCN)C(=O)N[C@@H](CCCCN)C(=O)N[C@@H](CCCCN)C(=O)N[C@@H](CCCCN)C(N)=O)C(C)C [Example 1, D-Ser^1 -Lys^17,18 -β^1-18-corticotropin-Lys^18-amide] | solubility in water: less than 0.1% |
| water-insoluble | CSCC[C@H](NC(=O)[C@H](CO)NC(=O)[C@H](Cc1ccc(O)cc1)NC(=O)[C@H](N)CO)C(=O)N[C@@H](CCC(=O)O)C(=O)N[C@@H](Cc1c[nH]cn1)C(=O)N[C@@H](Cc1ccccc1)C(=O)N[C@@H](CCCNC(=N)N)C(=O)N[C@@H](Cc1c[nH]c2ccccc12)C(=O)NCC(=O)N[C@@H](CCCCN)C(=O)N1CCC[C@H]1C(=O)N[C@H](C(=O)NCC(=O)N[C@@H](CCCCN)C(=O)N[C@@H](CCCCN)C(=O)N[C@@H](CCCCN)C(=O)N[C@@H](CCCCN)C(N)=O)C(C)C [Example 4, D-Ser^1 -Lys^17,18 -β^1-18-corticotropin-Lys^18-amide] | – |
| sparingly soluble in water | CSCC[C@H](NC(=O)[C@H](CO)NC(=O)[C@H](Cc1ccc(O)cc1)NC(=O)[C@H](N)CO)C(=O)N[C@@H](CCC(=O)O)C(=O)N[C@@H](Cc1c[nH]cn1)C(=O)N[C@@H](Cc1ccccc1)C(=O)N[C@@H](CCCNC(=N)N)C(=O)N[C@@H](Cc1c[nH]c2ccccc12)C(=O)NCC(=O)N[C@@H](CCCCN)C(=O)N1CCC[C@H]1C(=O)N[C@H](C(=O)NCC(=O)N[C@@H](CCCCN)C(=O)N[C@@H](CCCCN)C(=O)N[C@@H](CCCCN)C(=O)N[C@@H](CCCCN)C(=O)N1CCC[C@H]1C(=O)O)C(C)C [Example 6, D-Ser^1 -Lys^17,18 -β^1-19-corticotropin] | – |
| practically insoluble in water | CSCC[C@H](NC(=O)CNC(=O)[C@H](Cc1ccc(O)cc1)NC(=O)[C@H](N)CO)C(=O)N[C@@H](CCC(=O)O)C(=O)N[C@@H](Cc1c[nH]cn1)C(=O)N[C@@H](Cc1ccccc1)C(=O)N[C@@H](CCCNC(=N)N)C(=O)N[C@@H](Cc1c[nH]c2ccccc12)C(=O)NCC(=O)N[C@@H](CCCCN)C(=O)N1CCC[C@H]1C(=O)N[C@H](C(=O)NCC(=O)N[C@@H](CCCCN)C(=O)N[C@@H](CCCCN)C(=O)N[C@@H](CCCCN)C(=O)N[C@@H](CCCCN)C(N)=O)C(C)C [Example 8, D-Ser^1 -Gly^3 -Lys^17,18 -β^1-18-corticotropin-Lys^18-amide] (H-[dS]YGMEHFRWGKPVGKKKK-NH2) | – |
| – | CSCC[C@H](NC(=O)[C@H](CO)NC(=O)[C@H](Cc1ccc(O)cc1)NC(=O)[C@H](N)CO)C(=O)N[C@@H](CCC(=O)O)C(=O)N[C@@H](Cc1c[nH]cn1)C(=O)N[C@@H](Cc1ccccc1)C(=O)N[C@@H](CCCNC(=N)N)C(=O)N[C@@H](Cc1c[nH]c2ccccc12)C(=O)NCC(=O)N[C@@H](CCCCN)C(=O)N1CCC[C@H]1C(=O)N[C@H](C(=O)NCC(=O)N[C@@H](CCCCN)C(=O)N[C@@H](CCCCN)C(=O)N[C@@H](CCCCN)C(=O)N[C@@H](CCCCN)C(N)=O)C(C)C [acetic acid salt, D-Ser^1 -Lys^17,18 -β^1-18-corticotropin-Lys^18-amide hexaacetate hydrate, reference compound] | solubility in water (hydrate): > 10% |
| cannot be dissolved in water | D-Ser^1 -Gly^3 -Lys^17,18 -corticotropin-Lys^18 -amide [Example 9] | – |
